Measured values from US11246865B2 (priority 2017, dated 2022).
“And” between values parts separate entries of the source, which are not always exact repeats. Equal values may be shown once. “Also recorded” adds a separate entry of the source.

Key:
[1] = rat, in vivo
[2] = rat, in vivo; remark: listed apart in the source
[3] = target: T1, delta receptor in the mouse brain (Mus musculus, UniProt P32300); test: Mouse brain delta receptor agonism
T1 construct: from tissue; host or cells: mouse brain

[4] = Phase 1 study DPI-125.IV.001, safety of single intravenous bolus doses; format: in vivo, human
Procedure: Given this positive preclinical data, Good Laboratory Practice (GLP) Investigational New Drug (IND) enabling toxicology studies were performed. DPI-125 was tested in human subjects in a PK and safety study. DPI-125.IV.001, was a randomized, single-center, double-blind, placebo-controlled, dose escalating Phase 1 study. The primary objective was to evaluate the safety of single doses of DPI-125 administered by intravenous bolus infusion in normal healthy adult subjects. Male and female subjects between 18 and 55 years of age, inclusive, who were in good health and who were not taking any medications were eligible for enrollment. For each dose group, cohorts of 6 subjects were randomized to receive either placebo (n=1) or DPI-125 for Injection (n=5) as a single bolus dose of 5, 10, 20, or 50 μg/kg administered over 2 minutes. A final cohort received 25 μg/kg administered over 1 minute. For this first in human study, it was decided that 50 μg/kg should be the highest dose to be tested so the maximum tolerated dose was not determined.

in vivo = conditions: rat
[5] = Preclinical toxicity profile; format: in vivo
Text: The preclinical toxicity profile of DPI-125 was as expected for an opioid compound, with two positive exceptions.

[6] = Study 1: tolerance and cross-tolerance, tail pinch test (MPE); format: in vivo, rat; conditions: for MPE on Day 1: all animals, both dose points and both time points (20 and 30 min); for time to maximal/complete tolerance: b.i.d. s.c. dosing, morphine 5.0 mg/kg, DPI-125 1.0 mg/kg; for antinociceptive effect / tolerance in DPI-125 tolerant animals: tolerant to 1.0 mg/kg DPI-125 BID; for antinociceptive effect / tolerance in DPI-125 tolerant animals / antinociceptive effect / tolerance in morphine tolerant animals: challenge morphine 5.0 or DPI-125 1.0 mg/kg; for antinociceptive effect / tolerance in morphine tolerant animals: tolerant to 5.0 mg/kg morphine BID
[7] = Studies 2 and 3: antinociceptive ED50 in naive and tolerant animals, tail pinch test; format: in vivo, rat; conditions: for antinociceptive ED50: s.c.; for antinociceptive ED50 / ED50: 20 min tail pinch; for ED50: Rattus norvegicus, sc, 20 min
[8] = target: T2, delta receptor in the mouse vas deferens (Mus musculus, UniProt P32300); test: Mouse vas deferens delta receptor agonism
T2 construct: from tissue; host or cells: mouse vas deferens

[9] = healthy adults, single IV bolus 5-50 μg/kg
[10] = DPI-125 tolerant animals, challenge dose 1 (day 7), 30 min
[11] = DPI-125 tolerant animals, challenge dose 1 (day 7), morphine 5.0 or DPI-125 1.0 mg/kg s.c., 20 min
[12] = DPI-125 tolerant animals, challenge dose 2 (day 7.25), 20 min
[13] = DPI-125 tolerant animals, challenge dose 2 (day 7.25), 30 min
[14] = DPI-125 tolerant animals, challenge dose 3 (day 8), 20 min
[15] = DPI-125 tolerant animals, challenge dose 3 (day 8), 30 min
[16] = DPI-125 tolerant animals, challenge dose 4 (day 8.25), 20 min
[17] = DPI-125 tolerant animals, challenge dose 4 (day 8.25), 30 min
[18] = morphine tolerant animals, challenge dose 1 (day 6), 30 min
[19] = morphine tolerant animals, challenge dose 1 (day 6), morphine 5.0 or DPI-125 1.0 mg/kg s.c., 20 min
[20] = morphine tolerant animals, challenge dose 2 (day 6.25), 20 min
[21] = morphine tolerant animals, challenge dose 2 (day 6.25), 30 min
[22] = morphine tolerant animals, challenge dose 3 (day 7), 20 min
[23] = morphine tolerant animals, challenge dose 3 (day 7), 30 min
[24] = morphine tolerant animals, challenge dose 4 (day 7.25), 20 min
[25] = morphine tolerant animals, challenge dose 4 (day 7.25), 30 min
[26] = tolerance development, dose 1 (day 1), s.c. BID (morphine 5.0, DPI-125 1.0 mg/kg), 20 minutes post-drug
[27] = tolerance development, dose 1 (day 1), s.c. BID (morphine 5.0, DPI-125 1.0 mg/kg), 30 minutes post-drug
[28] = tolerance development, dose 2 (day 1.25), s.c. BID, 20 minutes post-drug
[29] = tolerance development, dose 2 (day 1.25), s.c. BID, 30 minutes post-drug
[30] = tolerance development, dose 3 (day 2), s.c. BID, 20 minutes post-drug
[31] = tolerance development, dose 3 (day 2), s.c. BID, 30 minutes post-drug
[32] = tolerance development, dose 4 (day 2.25), s.c. BID, 20 minutes post-drug
[33] = tolerance development, dose 4 (day 2.25), s.c. BID, 30 minutes post-drug
[34] = tolerance development, dose 5 (day 3), s.c. BID, 20 minutes post-drug
[35] = tolerance development, dose 5 (day 3), s.c. BID, 30 minutes post-drug
[36] = tolerance development, dose 6 (day 3.25), s.c. BID, 20 minutes post-drug
[37] = tolerance development, dose 6 (day 3.25), s.c. BID, 30 minutes post-drug
[38] = tolerance development, dose 7 (day 4), s.c. BID, 20 minutes post-drug
[39] = tolerance development, dose 7 (day 4), s.c. BID, 30 minutes post-drug
[40] = tolerance development, dose 8 (day 4.25), s.c. BID, 20 minutes post-drug
[41] = tolerance development, dose 8 (day 4.25), s.c. BID, 30 minutes post-drug
[42] = tolerance development, dose 9 (day 5), s.c. BID, 20 minutes post-drug
[43] = tolerance development, dose 9 (day 5), s.c. BID, 30 minutes post-drug
[44] = tolerance development, dose 10 (day 5.25), s.c. BID, 20 minutes post-drug
[45] = tolerance development, dose 10 (day 5.25), s.c. BID, 30 minutes post-drug
[46] = DPI-125 tolerant versus naive animals

T2 sequence (P32300 whole entry): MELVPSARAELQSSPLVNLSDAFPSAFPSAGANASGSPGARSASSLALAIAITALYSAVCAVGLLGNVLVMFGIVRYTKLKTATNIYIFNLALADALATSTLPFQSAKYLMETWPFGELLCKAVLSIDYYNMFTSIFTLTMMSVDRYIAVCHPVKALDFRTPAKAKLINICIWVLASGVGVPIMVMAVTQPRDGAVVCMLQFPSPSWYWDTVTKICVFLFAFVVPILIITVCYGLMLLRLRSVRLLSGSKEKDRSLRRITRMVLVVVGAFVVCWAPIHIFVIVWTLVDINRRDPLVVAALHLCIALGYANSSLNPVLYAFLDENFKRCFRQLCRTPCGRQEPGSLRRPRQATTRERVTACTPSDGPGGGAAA
T1 sequence (P32300 whole entry): as above

C=CCN1C[C@H](C)N([C@H](c2ccsc2)c2cccc(O)c2)C[C@H]1C [DPI-125, (−)3-((S)-((2S,5R)-4-allyl-2,5-dimethyl-1-piperazinyl)(3-thienyl)methyl)phenol]
Therapeutic Ratio [1]: 14.4 | therapeutic index relative to morphine [1]: approximately 7 × | Analgesic ED50 Tail Pinch [2]: 0.050 mg/kg | analgesic potency relative to morphine [2]: > 40 × | antinociceptive potency relative to morphine [2]: 47 times | delta receptor agonist activity [3]: an agonist at the delta receptor | seizure activity / seizure liability ([4]; EEG, first in human trial): no seizure activity was noted; also recorded: does not have seizure liability | dysphoria as a side effect ([4]; first in human trial): nor does it exhibit dysphoria | corrected QT intervals [4, 9]: No time- or dose-related trends | deaths or serious AEs [4, 9]: no deaths or any other serious AEs reported | most common drug-related AEs [4, 9]: somnolence, dizziness, and paraesthesia | tolerability [4, 9]: well tolerated | ED50 (in vivo): 0.72 mg/kg | emesis ([5]; even at the highest doses given): did not occur | flushing, reddened mucous membranes or urticaria ([5]; in vivo): did not produce any | Mean MPE [6, 10]: 3.51% | Mean MPE [6, 11]: 8.77% | Mean MPE [6, 12]: 22.82% | Mean MPE [6, 13]: 7.90% | Mean MPE [6, 14]: 9.65% | Mean MPE [6, 15]: 2.63% | Mean MPE [6, 16]: 1.8±1.8% and 1.76% | Mean MPE [6, 17]: 0.88% | MPE on Day 1 [6]: 100% | time to maximal/complete tolerance [6]: 8 days | Mean MPE [6, 18]: 80.7±15.2% and 80.7% | Mean MPE [6, 19]: 64.9% | Mean MPE [6, 20]: 81.6±12.6% and 81.6% | Mean MPE [6, 21]: 42.1% | Mean MPE [6, 22]: 50.9% | Mean MPE [6, 23]: 57.0% | Mean MPE [6, 24]: 30.7% | Mean MPE [6, 25]: 26.3% | Mean MPE [6, 26]: 100.0% | Mean MPE [6, 27]: 100.0% | Mean MPE [6, 28]: 100.0% | Mean MPE [6, 29]: 100.0% | Mean MPE [6, 30]: 99.1% | Mean MPE [6, 31]: 100.0% | Mean MPE [6, 32]: 79.8% | Mean MPE [6, 33]: 88.2% | Mean MPE [6, 34]: 84.7±10.0% and 84.7% | Mean MPE [6, 35]: 66.7±10.9% and 66.7% | Mean MPE [6, 36]: 81.1% | Mean MPE [6, 37]: 69.7% | Mean MPE [6, 38]: 70.6±12.3% and 70.6% | Mean MPE [6, 39]: 72.8% | Mean MPE [6, 40]: 75.0% | Mean MPE [6, 41]: 51.3% | Mean MPE [6, 42]: 75.9±9.5% and 75.9% | Mean MPE [6, 43]: 40.8±11.2% and 40.8% | Mean MPE [6, 44]: 47.4±11.9% and 47.4% | Mean MPE [6, 45]: 28.5±9.3% and 28.5% | Mean MPE ([6]; tolerance development, dose 11 (day 6), s.c. BID, 20 minutes post-drug): 34.2±12.5% and 34.2% | Mean MPE ([6]; tolerance development, dose 11 (day 6), s.c. BID, 30 minutes post-drug): 21.1% | Mean MPE ([6]; tolerance development, dose 12 (day 6.25), s.c. BID, 20 minutes post-drug): 37.7±12.7% and 37.7% | Mean MPE ([6]; tolerance development, dose 12 (day 6.25), s.c. BID, 30 minutes post-drug): 11.8±7.9% and 11.8% | antinociceptive effect / tolerance in DPI-125 tolerant animals [6]: no antinociceptive effects | antinociceptive effect / tolerance in morphine tolerant animals [6]: only partially tolerant; also recorded: significant antinociceptive effects | antinociceptive ED50 ([7]; DPI-125 tolerant animals): 1.218 mg/kg | Fold Change of ED50 [7, 46]: 2.99 fold and 3.0 fold | ED50 ([7]; DPI-125 tolerant animals): 1.22 mg/kg | ED50 ([7]; morphine tolerant animals): 0.72 mg/kg | ED50 ([7]; naive animals): 0.41 mg/kg | potency in morphine tolerant animals relative to DPI-125 tolerant animals ([7]; more potent in morphine tolerant): 1.7 fold | antinociceptive ED50 ([7]; morphine tolerant animals): 0.717 mg/kg | antinociceptive ED50 ([7]; naive animals): 0.407 mg/kg | delta-opioid agonist activity [8]: acts as a delta-opioid agonist

CN1CC[C@]23c4c5ccc(O)c4O[C@H]2[C@@H](O)C=C[C@H]3[C@H]1C5 [Morphine, morphine, reference compound]
Therapeutic Ratio [1]: 2.1 | Analgesic ED50 Tail Pinch [2]: 2.01 mg/kg | ED50 (in vivo): 4.23 mg/kg | Mean MPE [6, 10]: 2.63% | Mean MPE [6, 11]: 1.76% | Mean MPE [6, 12]: 0.00% | Mean MPE [6, 13]: 1.75% | Mean MPE [6, 14]: 3.51% | Mean MPE [6, 15]: 0.00% | Mean MPE [6, 16]: 0.88% | Mean MPE [6, 17]: 0.00% | MPE on Day 1 [6]: 100% | time to maximal/complete tolerance [6]: 5 days | Mean MPE [6, 18]: 4.4% | Mean MPE [6, 19]: 4.4% | Mean MPE [6, 20]: 0.9% | Mean MPE [6, 21]: 2.6% | Mean MPE [6, 22]: 0.0% | Mean MPE [6, 23]: 0.9% | Mean MPE [6, 24]: 2.6% | Mean MPE [6, 25]: 1.8% | Mean MPE [6, 26]: 100.0% | Mean MPE [6, 27]: 100.0% | Mean MPE [6, 28]: 100.0% | Mean MPE [6, 29]: 100.0% | Mean MPE [6, 30]: 78.9% | Mean MPE ([6]; tolerance development, dose 3 (day 2), s.c. BID, 20 minutes post-drug, listed as morphine sulfate): 78.9±7.9% | Mean MPE [6, 31]: 75.9% | Mean MPE ([6]; tolerance development, dose 3 (day 2), s.c. BID, 30 minutes post-drug, listed as morphine sulfate): 78.9±8.6% | Mean MPE [6, 32]: 56.6% | Mean MPE [6, 33]: 57.9% | Mean MPE [6, 34]: 33.8% | Mean MPE [6, 35]: 46.5% | Mean MPE [6, 36]: 32.9% | Mean MPE [6, 37]: 24.1% | Mean MPE [6, 38]: 23.7% | Mean MPE [6, 39]: 20.6% | Mean MPE [6, 40]: 7.0% | Mean MPE ([6]; tolerance development, dose 8 (day 4.25), s.c. BID, 20 minutes post-drug, listed as morphine sulfate): 7.0±2.8% | Mean MPE [6, 41]: 5.7% | Mean MPE ([6]; tolerance development, dose 8 (day 4.25), s.c. BID, 30 minutes post-drug, listed as morphine sulfate): 5.7±1.8% | Mean MPE [6, 42]: 3.1% | Mean MPE ([6]; tolerance development, dose 9 (day 5), s.c. BID, 20 minutes post-drug, listed as morphine sulfate): 3.1±1.2% | Mean MPE [6, 43]: 2.2% | Mean MPE ([6]; tolerance development, dose 9 (day 5), s.c. BID, 30 minutes post-drug, listed as morphine sulfate): 2.2±1.0% | Mean MPE [6, 44]: 5.3% | Mean MPE [6, 45]: 3.9% | antinociceptive effect / tolerance in DPI-125 tolerant animals [6]: complete tolerance | antinociceptive effect / tolerance in DPI-125 tolerant animals ([6]; listed as morphine sulfate): no antinociceptive effects | antinociceptive effect / tolerance in morphine tolerant animals [6]: no antinociceptive effects | Fold Change of ED50 [7, 46]: 7.8 fold | ED50 ([7]; DPI-125 tolerant animals): 15.8 mg/kg | ED50 ([7]; morphine tolerant animals): 11.3 mg/kg | ED50 ([7]; naive animals): 2.04 mg/kg | Fold Change of ED50 ([7]; morphine tolerant versus naive animals): 5.5 fold | antinociceptive ED50 ([7]; naive animals): 2.037 mg/kg
